The results in this text go back to US20050080054A1, “Treating androgen decline in aging male (ADAM)-associated conditions with SARMS” (priority 2002, published 2005).

Holding throughout (assay type): in vivo, rat
The test system of experiment [1] is female rats after ovariectomy. The experiment can be described thus: Bone mineral content (DEXA) in female rats after ovariectomy. Here is the method: One hundred ten female rats were assigned to one of eleven treatment groups. Groups 1-8 were ovariectomized on day one of the study. Groups 9-11 were intact animals. Groups 1-6 received Compound VI by daily subcutaneous injection at doses of 0.1, 0.3, 0.5, 0.75, 1.0, and 3 mg/day, respectively. Groups 7 and 11 received dihydrotestosterone (DHT) at a dose of 1 mg/day. Groups 8 and 9 were ovariectomized and intact control groups, respectively. Group 10 received Compound VI at a dose of 1.0 mg/day. All animals were treated for 120 days. Bone mineral content (BMC) was determined using dual energy x-ray absorptiometry (DEXA) on days 1, 30, 60, 90, and 120.

The subject of experiment [2] is androgen-responsive tissues (prostate, seminal vesicles, levator ani muscle). In words: Dose response of androgenic and anabolic activities (Emax, ED50) compared to TP. The note with it: for Emax (% of Intact Control): doses 0.1-1.0 mg/day; for Relative Afficacy / Relative Potency: relative to TP. How it is done: FIG. 6: Dose response Curves. Rats were left untreated, or treated with 0.1, 0.3, 0.5, 0.75 and 1.0 mg/day Compound VI, Compound VII or testosterone propionate (TP), and the weight of androgen-responsive tissues (prostate—FIG. 6A, semimal vesicles—FIG. 6B and levator ani muscle—FIG. 6C) was determined. The results are plotted as percentage of the intact control.
(§1) Compound VI and Compound VII were synthesized and characterized in the laboratory of Dr. Duane Miller at the University of Tennessee, Memphis, Tenn. Male Sprague-Dawley rats were purchased from Harlan Biosciences (Indianapolis, Ind.). The animals were maintained on a 12-h cycle of light and dark with food and water available ad libitum. All animal studies were reviewed and approved by the Animal Care and Use Committee of The Ohio State University, and conformed to the Principles of Laboratory Animal Care (NIH publication #85-23, revised 1985). Immature male Sprague-Dawley rats weighing 187 to 214 g were randomly distributed into 9 groups of 5 animals. One day before the initiation of drug treatment, groups 4 through 6 and groups 7 through 9 received unilateral or bilateral orchidectomy, respectively, via a midline scrotal incision. […] All drugs given to animals were freshly prepared as solutions in polyethylene glycol 300 (PEG 300). Groups 4 and 7 received treatment with vehicle alone (i.e., PEG 300). Animals in groups 3, 6, and 9 received testosterone propionate (TP, 0.5 mg/day) via implantation of subdermal osmotic pumps (Model 2002, Durect Corporation, Palo Alto, Calif.). Animals in groups 2, 5, and 8 received Compound VI or Compound VII (0.5 mg/day) via implantation of subdermal osmotic pumps. After 14 days of drug treatment, rats were weighed, anesthetized, and sacrificed. Blood samples were collected by venipuncture of the abdominal aorta. Plasma samples were analyzed for testosterone, FSH, LH and osteocalcin. Testosterone concentrations were measured by AniLytics Inc. (Gaithersburg, Md.). FSH and LH levels were measured by the National Hormone and Peptide Program (Dr. A F Parlow, UCLA, CA). Plasma osteocalcin levels were determined using a commercially available rat osteocalcin EIA kit from Biomedical Technologies Inc. (Stoughton, Mass.). The ventral prostates, seminal vesicles, and levator ani muscle were removed and weighed. Osmotic pumps were also removed from animals to check for correct pump operation. The weights of all organs were normalized to body weight, and analyzed for any statistically significant differences between groups using single-factor ANOVA with the alpha value set a priori at p<0.05. The weights of prostates and seminal vesicles were used as indices for evaluation of androgenic activity, and the levator ani muscle weight was used to evaluate the anabolic activity. Statistical analyses of parameters from complete blood count or serum chemical profiling, wherever applicable, were performed by single-factor ANOVA with the alpha value set a priori at p<0.05.

Experiment [3] is described as follows: Plasma FSH levels in male rats of varying hormonal status. The following applies: 0.5 mg/day; for Plasma FSH levels: 14 days, n = 5.
Source text: as §1

A short description of experiment [4]: Plasma LH levels in male rats of varying hormonal status. The following applies: 0.5 mg/day; for Plasma LH levels: 14 days, n = 5.
Source text: as §1

A short description of experiment [5]: Plasma testosterone levels in male rats of varying hormonal status. The note with it: 0.5 mg/day; for Plasma testosterone levels: osmotic pump, 14 days, n = 5.
Source text: as §1

Experiment [6] is described as follows: Plasma osteocalcin levels in male rats of varying hormonal status. The following applies: 0.5 mg/day; for Plasma osteocalcin levels: 14 days, n = 5.
Source text: as §1

For experiment [7], the system named is androgen-responsive tissues (prostate, seminal vesicles, levator ani muscle). The experiment can be described thus: Androgenic and anabolic activity: weight of androgen-responsive tissues in intact, hemi-orchidectomized and castrated rats. The note with it: 0.5 mg/day, 14 days, n = 5. How it is done: FIG. 3: Androgenic and Anabolic activity of Compound VI and Compound VII in rats. Male rats with normal testicular function (no surgical manipulation) were left untreated (Intact), treated with compound VI (0.5 mg/day), compound VII (0.5 mg/day) or testosterone proprionate (TP, 0.5 mg/day), and the weight of androgen-responsive tissues (prostate—FIG. 3A, semimal vesicles—FIG. 3B, and levator ani muscle—FIG. 3C) was determined.
FIG. 4: Androgenic and Anabolic activity of Compound VI and Compound VII in rats. Male rats received unilateral orchidectomy (Hemi-orchidectomized) and were left untreated (Intact), treated with vehicle alone (PEG 300), Compound VI (0.5 mg/day), Compound VII (0.5 mg/day), or testosterone proprionate (TP, 0.5 mg/day), and the weight of androgen-responsive tissues (prostate—FIG. 4A, semimal vesicles—FIG. 4B, and levator ani muscle—FIG. 4C) was determined.
FIG. 5: Androgenic and Anabolic activity of Compound VI and Compound VII in rats. Male rats received bilateral orchidectomy (Castrated) and were left untreated (Intact), treated with vehicle alone (PEG 300), Compound VI (0.5 mg/day), Compound VII (0.5 mg/day), or testosterone proprionate (TP, 0.5 mg/day), and the weight of androgen-responsive tissues (prostate—FIG. 5A, semimal vesicles—FIG. 5B, and levator ani muscle—FIG. 5C) was determined.
as §1

The subject of experiment [8] is myosin heavy chain (MHC) IIb mRNA. The experiment can be described thus: Myosin heavy chain (MHC) IIb mRNA expression in masseter muscle by RT-PCR. The following applies: masseter muscle of intact female rats; untreated control = 100%. The source says:
MHC is the predominant protein in skeletal muscle encoded by a multigene family expressed in a tissue-specific and developmentally regulated manner [Adams et al 1999]. In steady state, mRNA expression usually parallels the pattern of MHC protein expression. Because transcription of MHC mRNA occurs in advance of MHC protein translation, and the increased sensitivity of RT-PCR compared to western blotting, rapid changes in mRNA expression can be detected and used to analyze the subtle dynamic effects of muscle anabolism [Wright et al 1997].
The masseter muscle dissected from untreated intact female rats was set as the control level (representing 100%) of MHC IIb expression (FIG. 7A). Intact female rats treated with androgens were evaluated against the untreated controls for the effect of treatment on MHC IIb from masseter.

[9] abbreviates: TP statement for castrated male rats.

For `C[C@]12CCC(=O)C[C@@H]1CC[C@@H]1[C@@H]2CC[C@]2(C)[C@@H](O)CC[C@@H]12` [DHT, dihydrotestosterone, reference compound], the “potency comparison Compound VI versus DHT” value in experiment [1] (ovariectomized female rat bone model) is “less potent than Compound VI”. Also, the “increase in BMC” value in experiment [1] (ovariectomized female rats, 1.0 mg/day, treated for 120 days (group 5; DHT 1 mg/day)) is 15%.

Regarding `CC(=O)Nc1ccc(OC[C@](C)(O)C(=O)Nc2ccc([N+](=O)[O-])c(C(F)(F)F)c2)cc1` [GTx-017], in experiment [2] (Anabolic, Levator Ani Muscle), the “ED50” value is listed as 0.14 ± 0.01 mg/day, the “Emax (% of Intact Control)” value was 101.0 ± 1.0 % of Intact Control, the “Relative Afficacy” value is listed as 0.97 and the “Relative Potency” value came to 1.07. Besides, in experiment [2] (Androgenic, Prostate), the “ED50” value was 0.43 ± 0.01 mg/day, the “Emax (% of Intact Control)” value is on record as 35.2 ± 0.4 % of Intact Control, the “Relative Afficacy” value turned out to be 0.29 and the “Relative Potency” value was 0.30. Moreover, in experiment [2] (Androgenic, Seminal Vesicle), the “ED50” value came to 0.55 ± 0.02 mg/day, the “Emax (% of Intact Control)” value is 28.5 ± 0.8 % of Intact Control, the “Relative Afficacy” value stood at 0.40 and the “Relative Potency” value is recorded as 0.22.

Regarding `C[C@](O)(COc1ccc(F)cc1)C(=O)Nc1ccc([N+](=O)[O-])c(C(F)(F)F)c1` [GTx-014], in experiment [2] (Anabolic, Levator Ani Muscle), the “ED50” value stood at 0.44 ± 0.01 mg/day, the “Emax (% of Intact Control)” value is listed as 74.9 ± 0.4 % of Intact Control, the “Relative Afficacy” value is given as 0.72 and the “Relative Potency” value turned out to be 0.34. Moreover, in experiment [2] (Androgenic, Prostate), the “ED50” value worked out at 0.42 ± 0.04 mg/day, the “Emax (% of Intact Control)” value is 14.5 ± 0.7 % of Intact Control, the “Relative Afficacy” value was found to be 0.12 and the “Relative Potency” value turned out to be 0.31. Besides, in experiment [2] (Androgenic, Seminal Vesicle), the “ED50” value is on record as 0.38 ± 0.26 mg/day, the “Emax (% of Intact Control)” value was 12.7 ± 3.1 % of Intact Control, the “Relative Afficacy” value was 0.18 and the “Relative Potency” value came out at 0.32.

As for `CCC(=O)O[C@H]1CC[C@H]2[C@@H]3CCC4=CC(=O)CC[C@]4(C)[C@H]3CC[C@]12C` [TP, testosterone propionate, reference compound], the “ED50” value in experiment [2] (Anabolic, Levator Ani Muscle) came to 0.15 ± 0.03 mg/day; in experiment [2] (Androgenic, Prostate), 0.13 ± 0.03 mg/day; in experiment [2] (Androgenic, Seminal Vesicle), 0.12 ± 0.02 mg/day. Also, the “Emax (% of Intact Control)” value in experiment [2] (Anabolic, Levator Ani Muscle) is recorded as 104.2 ± 10.1 % of Intact Control; in experiment [2] (Androgenic, Prostate), 120.6 ± 13.4 % of Intact Control; in experiment [2] (Androgenic, Seminal Vesicle) it was 70.0 ± 18.8 % of Intact Control. Besides, the “Relative Afficacy” value stood at 1.00 in experiment [2] (Anabolic, Levator Ani Muscle); 1.00 in experiment [2] (Androgenic, Prostate); 1.00 in experiment [2] (Androgenic, Seminal Vesicle). Further, the “Relative Potency” value in experiment [2] (Anabolic, Levator Ani Muscle) is recorded as 1.00; in experiment [2] (Androgenic, Prostate), 1.00; in experiment [2] (Androgenic, Seminal Vesicle), 1.00. The “effect on plasma FSH levels” value in experiment [3] (setting [9]) was “significant decrease”. The entries for the “Plasma FSH levels” value in experiment [3] (castrated male rats), in experiment [3] (hemi-orchidectomized male rats) and in experiment [3] (intact male rats) were 58.0 ± 6.9 ng/mL, 17.2 ± 3.3 ng/mL and 11.4 ± 1.7 ng/mL, respectively. Also, the “effect on plasma LH levels” value in experiment [4] (setting [9]) is on record as “significant decrease”. In addition, the “Plasma LH levels” value in experiment [4] (castrated male rats) was found to be 6.702 ± 1.513 ng/mL; in experiment [4] (hemi-orchidectomized male rats), 0.124 ± 0.092 ng/mL; in experiment [4] (intact male rats), 0.168 ± 0.173 ng/mL. For the same molecule, the “plasma testosterone levels versus controls” value in experiment [5] (castrated male rats) was “higher plasma testosterone levels”. The Plasma testosterone levels turned out to be 0.258 ± 0.103 ng/mL in experiment [5] (castrated male rats), 2.366 ± 1.232 ng/mL in experiment [5] (hemi-orchidectomized male rats) and 1.482 ± 0.416 ng/mL in experiment [5] (intact male rats). In experiment [6] (Compound VI statement for hemi-orchidectomized and castrated animals), the “effect on plasma osteocalcin levels” value is listed as “no effect”. Also, the Plasma osteocalcin levels in experiment [6] (castrated male rats) came to 65.976 ± 11.213 ng/mL; in experiment [6] (hemi-orchidectomized male rats), 77.236 ± 24.418 ng/mL; in experiment [6] (intact male rats), 74.952 ± 15.399 ng/mL. Further, the “Levator Ani weight” value is on record as 87.27 ± 10.25 % of intact control in experiment [7] (castrated rats), 98.63 ± 10.47 % of intact control in experiment [7] (hemi-orchidectomized rats) and 95.61 ± 9.34 % of intact control in experiment [7] (intact rats). The Prostate weight is given as 76.78 ± 10.43 % of intact control in experiment [7] (castrated rats), 98.57 ± 7.98 % of intact control in experiment [7] (hemi-orchidectomized rats) and 97.45 ± 10.82 % of intact control in experiment [7] (intact rats). The “Seminal Vesicle weight” value in experiment [7] (castrated rats) is given as 63.48 ± 17.05 % of intact control; in experiment [7] (hemi-orchidectomized rats), 114.19 ± 23.81 % of intact control; in experiment [7] (intact rats) it was 103.95 ± 13.23 % of intact control. For the same molecule, in experiment [8], the “MHC type IIb transcription, of untreated control” value amounted to 133%.
